Source: patent publication US20230220006A1, “REGENTIDE-034 AND COMPOSITION FOR IMPROVING CONDITION OF SKIN, CONTAINING SAME” (NI[…]., LTD., priority 2020, published 2023)
Where a SMILES comes first, the peptide text is derived from it.

How the values were obtained:
HaCaT cells = test: Cytotoxicity evaluation (CCK8) in epidermal keratinocytes; type: cell-based, human; conditions: 5 µM or 10 µM, 48 hours, FBS-free medium
Protocol: (§1) The cytotoxicity of Regentide-034 prepared in Example 1 above was evaluated. Specifically, cytotoxicities were measured in HaCaT cells, which are human epidermal keratinocytes, and CCD-986Sk, which is human fibroblasts. Keratinocytes were dispensed at 3 × 10^3 cells/well and fibroblasts were dispensed at 5 × 10^3 cells/well in a 96-well plate, and then cultured in cell culture conditions for 24 hours in a medium containing 10% FBS. After culturing, 5 µM or 10 µM of Regentide-034 was added to an FBS-free medium, and this was cultured for 48 hours. Thereafter, 10 µl per well of CCK8 reaction solution (Dojindo Molecular Technologies, Kumamoto, Japan) was treated and reacted for 4 hours, and then absorbance was measured at 450 nm. The average absorbance value for each sample group was obtained, and the cell viability was evaluated by comparing it with the absorbance value of cells that had not been treated with Regentide-034 as a control group.

CCD-986Sk = test: Cytotoxicity evaluation (CCK8) in fibroblasts; type: cell-based, human; conditions: 5 µM or 10 µM, 48 hours, FBS-free medium
Protocol: as §1

## C[C@H](N)C(=O)N[C@@H](Cc1ccc(O)cc1)C(=O)NCC(=O)N[C@@H](CS)C(=O)N[C@@H](Cc1ccc(O)cc1)C(=O)N[C@@H](CS)C(=O)NCC(=O)N[C@@H](Cc1c[nH]c2ccccc12)C(=O)NCC(=O)NCC(N)=O [Regentide-034, AYGCYCGWGG-NH2] (H-AYGCYCGWGG-NH2)
HaCaT cells
  cytotoxicity (cell viability) to epidermal keratinocytes: not toxic
CCD-986Sk
  cytotoxicity (cell viability) to fibroblasts: not toxic
